Results reported in patent US8592401B2, “Methods and compounds for vitamin D therapy” (Proventiv Therapeutics, LLC, priority 2007, dated 2013).
Where two headings read alike, the source gives them in different places. One block for each molecule: values may come before it.

Assays:
[1] = system: rats having adenine-induced kidney failure; assay: Serum phosphorous in rats having adenine-induced kidney failure; type: in vivo, Sprague Dawley rats
Experimental: (§1) Soc. Neph., 17; 107-112]. After 4 weeks, normal diet was given to all animals. A control group receiving normal diet during the entire course of the study was used as normal control animals. After the 4 weeks of adenine diet treatment, animals were dosed i.v. 3×/week for 2 or 8 weeks with calcitriol or 1,25-dihydroxyvitamin D2 at 0.01, 0.05, 0.1, 0.25 and 0.5 mg/kg. Serum, plasma kidney and parathyroid gland were collected after 2 and 8 weeks. iPTH and FGF23 in plasma and serum, respectively, were measured using a commercial Elisa kit. Serum calcium was measured using an ORTHO-CLINICAL VITROS 250 chemistry system or an o-cresolphthalein complexone-based assay. Serum phosphorus was measured using an ORTHO-CLINICAL VITROS 250 chemistry system or an ammonium molybdate-based assay. Fibronectin 1 was measured by real-time PCR from cDNA isolated from kidney.

[2] = system: subjects with low serum 1,25-dihydroxyvitamin D; assay: Study in subjects with low serum 1,25-dihydroxyvitamin D (Example 1); type: in vivo, human
Experimental: 1,25-dihydroxyvitamin D2 is used as a treatment for subjects with low serum 1,25-dihydroxyvitamin D in a study involving 50 adults, ages 18-85 years.
The subjects have serum 1,25-dihydroxyvitamin D levels below 20 pg/dL and complete an eight-week baseline period and then 24 weeks of therapy with orally administered 1,25-dihydroxyvitamin D2.
The initial dose of 1,25-dihydroxyvitamin D2 is 1.0 μg, with increases in steps of 0.5 μg/day permitted after four weeks. The maximum dosage is limited to 5.0 μg/day of 1,25-dihydroxyvitamin D2. Subjects are monitored at regular intervals for plasma iPTH, serum calcium and phosphorus, 24-hour and fasting urinary calcium, bone-specific serum markers, plasma total 1,25-dihydroxyvitamin D2 and routine blood chemistries and hematologies.

[3] = system: rats having adenine-induced kidney failure; set-up: species or system Sprague Dawley rats; details: rat, in vivo, iv
Experimental: as §1
(§2) These findings indicate that L25-dihydroxyvitamin D2 appears to be less likely to cause calcemia than 1,25-dihydroxyvitamin D3 at doses that have equivalent efficacy.

C2BBe1 cells = assay: Alkaline phosphatase and CYP24 in C2BBe1 cells (real-time PCR); type: cell-based; details: 100 nM, 10 nM, 8 hours at 37° C.
Experimental: C2BBe1 cells were treated with […], 100 nM, and 10 nM 1,25-dihydroxyvitamin D2 and calcitriol. Cells were incubated for 8 hours at 37° C. The cells were then lysed in 1 ml of TRIzol reagent. RNA was isolated from cell lysates through phase separation, as per the manufacturer's instructions (INVITROGEN). After cDNA synthesis, real-time PCR was used to quantify alkaline phosphatase and CYP24.

[4] = Stability of compounds in human intestine microsomes; type: in vitro ADME; details: microsomes 22 mg/ml, NADPH-generating system, 60 min, 37° C.
Experimental: Equal parts of 0.1 M phosphate buffer (pH 7.4), NADPH, G-6-P, and G-6-P dehydrogenase were mixed to create a NADPH-generating system, and the final concentration of NADPH, G-6-P, and G-6-P dehydrogenase were 0.8 mM, 8 mM and 0.8 U/ml.
1,25-dihydroxyvitamin D2 and calcitriol were added in to the NADPH-generating system. The final concentrations of the two vitamin D compounds were each […]. A reaction was initiated by the addition of the human intestine microsomes (22 mg/ml) after a 5 min pre-incubation of the reaction at 37° C. After incubation for 60 min, the reaction was terminated by addition of cold 100% acetonitrile. An aliquot of the samples was injected into HPLC to determine the % remaining of the compound.

[5] = system: rats having adenine-induced kidney failure; assay: iPTH levels in rats having adenine-induced kidney failure; type: in vivo, Sprague Dawley rats; details: for suppression of serum PTH (iPTH) levels: adenine treated animals, i.v. 3×/week, after two weeks of dosing
Experimental: as §1, with “3×/week for 2 or 8 weeks with calcitriol or 1,25-dihydroxyvitamin D2 at 0.01, 0.05, 0.1, 0.25 and 0.5 mg/kg.” left out
For reference, PTH values are also shown for animals in the study fed a normal diet (without adenine).
as §2

renal FN1 = assay: Renal FN1 (fibronectin 1) expression by real-time PCR in adenine rats; type: in vivo, Sprague Dawley rats; set-up: extent of suppression of renal FN1 expression, compared to calcitriol-treated animals: dose or concentration left out as unconfirmed; details: after 12 days of treatment; for suppression of renal FN1 expression, comparison of the two compounds: 0.1 mg/kg
Experimental: as §1

[6] = system: ESRD human patients undergoing chronic hemodialysis; type: in vivo
Description: Up to 100 ESRD (End Stage Renal Disease) human patients undergoing chronic hemodialysis are studied in a multicenter, double-blind, placebo-controlled study. The selected patients reside in two major metropolitan areas within the continental U.S., have ages between 20 and 75 years, and have a history of secondary hyperparathyroidism. They have been on hemodialysis for at least four months, have a normal (or near normal) serum albumin, and have controlled serum phosphorus (often by using oral calcium phosphate binders).
On admission to the study, each patient is assigned at random to one of two treatment groups. One of these groups receives two consecutive 12-week courses of therapy with 1,25-dihydroxyvitamin D2; the other group receives one 12-week course of therapy with 1,25-dihydroxyvitamin D2 without interruption, by one 12-week course of placebo therapy. Each patient discontinues any 1α,25-dihydroxyvitamin D3 therapy for eight weeks prior to initiating 1,25-dihydroxyvitamin D2 therapy. Throughout this eight-week washout (or control) period and the two subsequent 12-week treatment periods, patients are monitored weekly for serum calcium and phosphorus. Serum intact PTH is monitored weekly or biweekly, and bone-specific serum markers, serum vitamin D metabolites, serum albumin, blood chemistries, hemoglobin and hematocrit are monitored at selected intervals.
During the study, patients undergo routine hemodialysis (three times per week) using a 1.24 mM calcium dialysate and ingest calcium phosphate binders (such as calcium carbonate or calcium acetate) in an amount sufficient to keep serum phosphate maintained in a range of 3.5 to 5.5 mg/dL. Patients who develop persistent mild hypercalcemia or mild hyperphosphatemia during the treatment periods reduce their 1,25-dihydroxyvitamin D2 dosage. […] Such patients are monitored at twice-weekly intervals until the serum calcium or phosphorus is normalized, and resume 1,25-dihydroxyvitamin D2 dosing.

DBP = biological target: T1, DBP (Homo sapiens, UniProt P02774); details: cited from earlier work
T1 sequence (P02774 17-474): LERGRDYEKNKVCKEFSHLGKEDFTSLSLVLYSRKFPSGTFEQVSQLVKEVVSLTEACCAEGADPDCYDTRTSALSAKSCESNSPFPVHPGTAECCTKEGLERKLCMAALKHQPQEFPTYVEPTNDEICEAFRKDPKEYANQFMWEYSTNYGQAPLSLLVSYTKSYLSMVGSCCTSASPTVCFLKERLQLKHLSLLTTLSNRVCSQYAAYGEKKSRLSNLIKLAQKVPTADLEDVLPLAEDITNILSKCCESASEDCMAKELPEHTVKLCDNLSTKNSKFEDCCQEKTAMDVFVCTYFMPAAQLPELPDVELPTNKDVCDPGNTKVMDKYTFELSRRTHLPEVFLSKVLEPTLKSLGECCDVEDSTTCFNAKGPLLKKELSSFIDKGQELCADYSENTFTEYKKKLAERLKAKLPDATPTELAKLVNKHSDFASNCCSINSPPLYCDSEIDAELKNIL

Caco-2 cells = details: cited from earlier work
bone resorption = details: in vivo; cited from earlier work
[7] = system: markers of bone metabolism; details: in culture; cited from earlier work
[8] = cited from earlier work
healthy male humans = details: cited from earlier work

elevation of serum phosphorous ([1]; adenine rats, i.v. 3×/week, doses 0.01-0.5): significance only at the highest dose
doses showing significant elevation of serum calcium [3]: greater than 0.05 μg/kg
metabolic stability (% remaining) in human intestinal microsomes [4]: metabolically unstable
hypercalcemia in patients exhibiting excessive suppression of serum PTH ([6]; human, in vivo): transient mild hypercalcemia is observed
SMILES: C=C1/C(=C\C=C2/CCC[C@]3(C)[C@@H]([C@H](C)/C=C/[C@H](C)C(C)(C)O)CC[C@@H]23)C[C@@H](O)C[C@@H]1O [1,25-dihydroxyvitamin D2]
serum 1,25-dihydroxyvitamin D levels between doses [2]: within the patients' normal historical physiological range
induction of IAP (alkaline phosphatase) activity (C2BBe1 cells): not a potent inducer of IAP activity
suppression of serum PTH (iPTH) levels [5]: in a dose dependant manner can suppress serum PTH levels
PTH inhibition ([5]; dose of 0.05 μg/kg): about 82.7%
suppression of renal FN1 expression, comparison of the two compounds (renal FN1): No difference in suppression
extent of suppression of renal FN1 expression, compared to calcitriol-treated animals (renal FN1): significantly greater
mean serum PTH relative to pretreatment levels ([6]; after initiation of dosing): less than 50 % of pretreatment levels
mean serum PTH in the active group ([6]; end of the second 12-week treatment period): remained controlled
DBP binding compared with 1,25-dihydroxyvitamin D3 (DBP): no significant difference

SMILES: C[C@H](/C=C/[C@H](C)C(C)(C)O)[C@H]1CC[C@H]2/C(=C/C=C3C[C@@H](O)C[C@H](O)C3)CCC[C@]12C [19-nor-1,25-dihydroxyvitamin D2]
stimulation of calcium transport (Caco-2 cells): did not show a significant effect
potency in promoting bone resorption relative to 1,25-dihydroxyvitamin D3 (bone resorption): approximately 10 fold less potent
effects on VDR expression, suppression of cell proliferation, osteocalcin and alkaline phosphatase activity versus 1,25-dihydroxyvitamin D3 [7]: indistinguishable
half-life ([8]; healthy patients): 4 to 6 h
half-life ([8]; patients with Stage 4 CKD): 20 h
half-life ([8]; patients with chronic renal failure): 15 h
affinity for DBP compared to 1,25-dihydroxyvitamin D3 (DBP): 3 fold lower

SMILES: C=C1CC[C@H](O)C/C1=C/C=C1\CCC[C@]2(C)[C@@H]([C@H](C)/C=C/[C@H](C)C(C)C)CC[C@@H]12 [Vitamin D2, ergocalciferol]
course of 25-hydroxyvitamin D2 levels (healthy male humans; 50,000 IU): fell early and were not different from baseline at 14 days
potency relative to Vitamin D3 (healthy male humans; healthy male humans): less than one-third as potent

SMILES: C=C1CC[C@H](O)C/C1=C/C=C1\CCC[C@]2(C)[C@@H]([C@H](C)CCCC(C)C)CC[C@@H]12 [Vitamin D3, cholecalciferol]
time of peak of 25-hydroxyvitamin D3 levels (healthy male humans; 50,000 IU): 14 days

SMILES: C=C1/C(=C\C=C2/CCC[C@]3(C)[C@@H]([C@H](C)CCCC(C)(C)O)CC[C@@H]23)C[C@@H](O)C[C@@H]1O [calcitriol, 1α,25-dihydroxyvitamin D3]
elevation of serum phosphorous ([1]; rat, in vivo, iv): significant elevation of phosphorous at the two highest doses
doses showing significant elevation of serum calcium ([3]; Sprague Dawley): greater than 0.10 μg/kg
stimulation of calcium transport (Caco-2 cells): 934%
inhibition at 0.0001 mg/kg ([5]; Rattus norvegicus, read-out: PTH inhibition): ~13.6%
suppression of serum PTH (iPTH) levels [5]: in a dose dependant manner can suppress serum PTH levels
suppression of renal FN1 expression, comparison of the two compounds (renal FN1): No difference in suppression
